Results: patent US20250188059A1, “NOVEL COMPOUND AND USE THEREOF FOR INHIBITING CHECKPOINT KINASE 2” (ARUM THERAPEUTICS INC, priority 2022, published 2025)
Read-outs that look alike come from different tables or passages of the source.

Experiments:
[1] = target: Chk2 kinase (Homo sapiens (Human), UniProt O96017); assay: Chk2 kinase inhibitory activity (LanthaScreen TR-FRET); format: biochemical; conditions: graded
Outline: (§1)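 Recombinant Chk1 or Chk2 was mixed with substrate and compound, and the reaction was started with ATP and run 1 h at room temperature. Phosphorylation was detected with a Tb-labelled anti-CREB pSer133 antibody for 30 min, read as the TR-FRET Em520/Em490 ratio. IC50 was fitted from duplicate-well means.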

[2] = Pharmacokinetics test using mice; format: in vivo; conditions: male, Balb/C, mouse, plasma; for Cmax: read-out: C0/Cmax; for Vd: iv, 1 mg/kg
Description: 6 to 8 week-old male Balb/C mice weighing 22-29 g were acclimatized for about 1 week, and then 12 mice for each group were divided into an intravenous administration group and an oral administration group and used in the experiment. The mice were fasted before administration of the compound and were allowed to drink water ad libitum. Feed was provided 2 hours after administration of the compound.
A preparation for intravenous injection (0.2 mg/mL) was prepared by dissolving 1.264 mg of the compound of Example 9 in 6.257 mL of DMSO: a mixed solution of solutol and ethanol (1:1): physiological saline (5:5:90% v/v). A preparation for oral administration (1 mg/mL) was prepared by suspending 5.916 mg of the compound of Example 9 in 5.857 mL of 0.5% methyl cellulose (0.5:99.5% v/v) containing 0.1 Tween 80.
The compound of Example 9 was administered at a dose of 1 mg/kg for intravenous administration and at a dose of 10 mg/kg for oral administration using an oral zonde.
In the case of intravenous administration, blood was collected at 5 minutes, 15 minutes, 30 minutes, 1 hour, 2 hours, 4 hours, 8 hours and 24 hours after administration of the compound. In the case of oral administration, blood was collected at 15 minutes, 30 minutes, 1 hour, 2 hours, 4 hours, 8 hours, 10 hours and 24 hours after administration of the compound. Plasma was separated from the collected blood, and the content of compounds in blood was measured by LC-MS/MS method, and PK parameters were calculated using Phoenix software ver.8.1.

[3] = test system: human breast cancer cell line MCF-7; assay: Cancer cell growth inhibition test (CellTiter-Glo); format: cell-based; conditions: Homo sapiens, MCF7, 72 h, MCF-7, 72 hours, graded; read-out: Celltiter glo analysis (IC50)
Outline: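 MCF-7 cells (about 3000/well) pre-incubated 24 hours at 37° C, then exposed 72 hours to serially diluted compound, alone or combined with cisplatin or doxorubicin. Viability read by CellTiter-Glo luminescence as % of DMSO-only wells; values are means of three wells.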

[4] = target: Chk1 kinase (Homo sapiens (Human), UniProt O14757); assay: Chk1 kinase inhibitory activity (LanthaScreen TR-FRET); format: biochemical; conditions: graded
Outline: as §1

Chain of Chk2 kinase (O96017 whole entry): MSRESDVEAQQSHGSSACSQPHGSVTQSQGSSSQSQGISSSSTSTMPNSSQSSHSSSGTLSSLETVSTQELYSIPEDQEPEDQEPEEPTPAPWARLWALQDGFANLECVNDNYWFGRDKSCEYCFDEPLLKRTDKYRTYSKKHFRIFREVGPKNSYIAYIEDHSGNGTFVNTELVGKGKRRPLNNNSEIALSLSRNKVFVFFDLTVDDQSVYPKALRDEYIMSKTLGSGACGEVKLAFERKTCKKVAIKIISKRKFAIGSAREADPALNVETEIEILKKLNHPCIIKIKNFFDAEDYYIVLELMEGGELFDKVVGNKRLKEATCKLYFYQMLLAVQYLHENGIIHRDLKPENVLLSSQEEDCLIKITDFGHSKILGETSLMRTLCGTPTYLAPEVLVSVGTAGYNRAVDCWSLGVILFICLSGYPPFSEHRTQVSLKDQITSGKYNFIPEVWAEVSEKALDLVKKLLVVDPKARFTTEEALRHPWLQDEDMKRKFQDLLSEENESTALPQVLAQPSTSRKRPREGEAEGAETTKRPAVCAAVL
Chain of Chk1 kinase (O14757 whole entry): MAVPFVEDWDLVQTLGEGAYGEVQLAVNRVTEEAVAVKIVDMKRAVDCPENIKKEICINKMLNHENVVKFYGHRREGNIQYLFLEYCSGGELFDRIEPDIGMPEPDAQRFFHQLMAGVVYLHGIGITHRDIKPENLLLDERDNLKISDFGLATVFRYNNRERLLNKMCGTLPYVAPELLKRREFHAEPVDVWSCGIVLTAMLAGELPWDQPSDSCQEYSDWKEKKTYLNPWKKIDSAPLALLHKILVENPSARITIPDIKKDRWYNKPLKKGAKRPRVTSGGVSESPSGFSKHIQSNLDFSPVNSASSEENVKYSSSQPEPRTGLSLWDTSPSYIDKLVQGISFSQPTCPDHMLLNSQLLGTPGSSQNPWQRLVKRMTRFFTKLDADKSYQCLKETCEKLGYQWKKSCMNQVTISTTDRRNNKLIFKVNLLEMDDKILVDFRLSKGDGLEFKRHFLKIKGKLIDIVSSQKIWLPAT

| IC50 [1] [nM] | AUC(0-inf) ([2]; IV (1 mg/kg)) [ng·h/mL] | AUC(0-t) ([2]; IV (1 mg/kg)) [ng·h/mL] | clearance ([2]; IV (1 mg/kg)) [mL/min/kg] | half-life ([2]; IV (1 mg/kg)) [h] | Cmax ([2]; IV (1 mg/kg)) [ng/mL] | bioavailability ([2]; PO 10 mg/kg vs IV 1 mg/kg, read-out: Oral bioavailability (% F)) [%] | AUC(0-inf) ([2]; PO (10 mg/kg)) [ng·h/mL] | AUC(0-t) ([2]; PO (10 mg/kg)) [ng·h/mL] | Tmax ([2]; PO (10 mg/kg)) [h] | half-life ([2]; PO (10 mg/kg)) [h] | Cmax ([2]; PO (10 mg/kg)) [ng/mL] | Vd ([2]; IV (1 mg/kg), read-out: Vd) [L/kg] | Vd ([2]; IV (1 mg/kg), read-out: Vss) [L/kg] | IC50 [3] [nM] | IC50 [4] [nM] | SMILES |
| --- | --- | --- | --- | --- | --- | --- | --- | --- | --- | --- | --- | --- | --- | --- | --- | --- |
| 10 to 100 | 298 | 267 | 56.2 | 1.36 | 231 | 59 | 1770 | 1730 | 0.5 | 1.92 | 749 | 6.59 | 5.22 | 10000 to 100000 |  | Nc1ncc(-c2cc(-c3cnn(CC(F)(F)F)c3)ccc2F)nc1C(=O)N[C@@H]1CNC[C@@H](F)C1 [Example 9, 3-amino-6-(2-fluoro-5-(1-(2,2,2-trifluoroethyl)-1H-pyrazol-4-yl)phenyl)-N-((3S,5S)-5-fluoropiperidin-3-yl) pyrazine-2-carboxamide] |
| 10 to 100 |  |  |  |  |  |  |  |  |  |  |  |  |  | ≤ 10000 | ≤ 10 | CC1(C)Cc2c(-c3ccc(F)c(-c4cnc(N)c(C(=O)N[C@@H]5CNC[C@@H](F)C5)n4)c3)cnn2C1 [Example 44, 3-amino-6-(5-(5,5-dimethyl-5,6-dihydro-4H-pyrrolo [1,2-b]pyrazol-3-yl)-2-fluorophenyl)-N-((3S,5S)-5-fluoropiperidin-3-yl)pyrazine-2-carboxamide] |
| ≤ 10 |  |  |  |  |  |  |  |  |  |  |  |  |  | > 100000 | 10 to 100 | Cn1cc(-c2cccc(-c3cnc(N)c(C(=O)NC4CCC5(CC5)NC4)n3)c2)cn1 (racemic) [Example 41, 3-amino-6-(3-(1-methyl-1H-pyrazol-4-yl)phenyl)-N-(4-azaspiro[2.5]octan-6-yl)pyrazine-2-carboxamide] |
